Source: US4906663A, “6-fluoroprostaglandins” (Asahi Glass Company, Ltd., priority 1987, dated 1990)
Converted amounts (≈) assume the structure as drawn. Like-named read-outs stand apart in the source and are kept apart here.

Columns and labels:
platelet aggregation [1] = assay: In vitro inhibition of ADP (1 μM)-induced platelet aggregation (turbidimetric method of Born, platelet-rich plasma); format: cell-based, guinea-pigs of Hartley strain; conditions: guinea-pig PRP, preincubated 37° C. for 10 minutes; for IC50: Cavia porcellus, Platelet
Protocol: (§1) Platelet aggregation study was carried out by a tarbidimetric method of Born (G. V. R. Born; Nature, 194, 927, 1962) using an aggregometer. Citrated blood obtained from guinea-pigs of Hartley strain was centrifuged at 120 g for 10 minutes and the supernatant, Platelet-rich plasma (PRP), was separated. In in vitro experiments, PRP was preincubated with test compounds at 37° C. for 10 minutes and then aggregation was induced by adding ADP (1 μM). Extent of aggregation was estimated with maximum changes of light transmittance within 5 minutes after adding ADP. Inhibitory potencies of compounds were expressed with the concentration showing 50% inhibition of platelet aggregation (IC50). In ex vivo experiments, compounds were orally given to guinea-pigs. Blood was taken 5 hours after the administration of compounds, and platelet aggregation study was performed as described in in vitro experiments. Potencies of compnds was expressed with minimum dose showing significant inhibition (MED).

platelet aggregation [2] = assay: Ex vivo inhibition of ADP-induced platelet aggregation 5 hours after oral administration; format: in vivo; conditions: Cavia porcellus, blood taken 5 hours after administration, guinea-pigs, read-out: Ex vivo MED (minimum dose showing significant inhibition of platelet aggregation)
Protocol: as §1

[3] = tested on: depression in amplitude of ST-segment on ECG (vasopressin); assay: Antianginal effect: vasopressin-induced depression in amplitude of ST-segment on ECG; format: in vivo, male rats of Donryu strain; conditions: Rattus norvegicus, anesthetized rats
Protocol: Antianginal effect of compounds was evaluated in male rats of Donryu strain according to Hatano et al. (N. Hatano et al.; Pharmacometrics, 19, 311, 1980) Vasopressin (0.2 IU/kg) was injected into femoral vein of anesthetized rats, and the depression in amplitude of ST-segment on ECG was measured at 30 second-intervals for 5 minutes after the vasopressin injection. Test compounds were intravenously injected 2 minutes before or orally given 30 minutes before the vasopressin injection. Data were analysed with two dimension analysis between the control and treated groups, and potencies of the compounds were expressed by MED.

[4] = tested on: gastric ulcer (HCl-ethanol induced); assay: Inhibitory effect on gastric ulcer induced by HCl-ethanol (lesion index); format: in vivo, rats (male, Wister strain); conditions: Rattus norvegicus; oral, 30 minutes before 0.4N HCl-50% ethanol (1 ml); over night-fasted rats; read-out: ED50 (dose required for 50% inhibition of lesion index)
Protocol: Gastric ulcer was induced by an oral administration of 0.4N HCl-50% ethanol (1 ml) to over night-fasted rats (male, Wister strain). One hour after HCl-ethanol administration, rats were sacrificed and their stomachs were isolated. Isolated stomachs were inflated with saline and fixed with 5% formalin. After fixation, the stomach was cut open along greater curvature and maximum length of each lesion was measured. The sum of lesion length was defined as the lesion index. Compounds were given orally 30 minutes before administration of HCl-ethanol. Potencies of compounds were expressed with ED50, the dose required for 50% inhibition of lesion index.

[5] = iv, I.V., 2 minutes before vasopressin 0.2 IU/kg, read-out: I.V. MED (antianginal effect)
[6] = po, P.O., 30 minutes before vasopressin 0.2 IU/kg, read-out: P.O. MED (antianginal effect)

Structure (SMILES) | In Vitro IC50 (platelet aggregation) (platelet aggregation [1]) [µg/mL] | IC50 (platelet aggregation [1]) [µg/mL] | minimal effective dose (platelet aggregation [2]) [µg/kg] | minimal effective dose [3, 5] [µg/kg] | minimal effective dose [3, 6] [µg/kg] | ED50 [4] [µg/kg]
CCCCCC(O)C=CC1C(O)CC(=O)C1CC(F)CCCCC(=O)O (single isomer, unassigned; ent-6) [APG - 23, 8-ent-6-fluoro-PGE1] | 0.0145 |  |  |  |  | 
CCCC[C@H](C)C[C@H](O)/C=C/[C@H]1[C@H](O)CC(=O)[C@H]1CC(F)CCCCC(=O)O (single isomer, unassigned; ent-17) [APG - 25] |  | 0.0127 (≈ 0.0317 µM) | 3000 | 1 | 0.1 | 
CCCCC[C@H](O)/C=C/[C@H]1[C@H](O)CC(=O)[C@@H]1/C=C(/F)CCCCC(=O)O [APG - 2, (6E)-Δ^6-6-fluoro-PGE1] |  | 0.52 (≈ 1.4 µM) |  |  |  | 
CCCCC[C@H](O)/C=C/[C@H]1[C@H](O)CC(=O)[C@@H]1C/C(F)=C\CCCC(=O)O [APG - 5, 6-fluoro-PGE2] |  | 0.49 (≈ 1.32 µM) |  |  |  | 
CCCCC[C@H](O)/C=C/[C@H]1[C@H](O)CC(=O)[C@@H]1C/C(F)=C\CCCC(=O)OC [APG - 7, 6-fluoro-PGE2 methyl ester] |  | 0.655 (≈ 1.7 µM) |  |  |  | 
CCCCC[C@H](O)/C=C/[C@H]1[C@H](O)CC(=O)[C@@H]1CC(F)CCCCC(=O)O (stereo partly drawn) [APG - 21, 6-fluoro-PGE1] |  | 0.1 (≈ 0.268 µM) |  |  |  | 
CCCC[C@H](C)C[C@H](O)/C=C/[C@H]1[C@H](O)CC(=O)[C@@H]1CC(F)CCCCC(=O)O (stereo partly drawn) [APG - 24, (17S)-17,20-dimethyl-6-fluoro-PGE1] |  | 0.0059 (≈ 0.0147 µM) | 300 | 10 | 0.1 | 
CCCC[C@H](C)C[C@H](O)/C=C/[C@H]1[C@H](O)CC(=O)[C@@H]1C/C(F)=C\CCCC(=O)O [APG - 27, (17S)-17,20-dimethyl-6-fluoro-PGE2] |  | 0.0427 (≈ 0.107 µM) |  |  |  | 3.4
CCCC[C@H](C)C[C@H](O)/C=C/[C@H]1[C@H](O)CC(=O)[C@@H]1CC(F)CC/C=C/C(=O)O (stereo partly drawn) [APG - 29, Δ^2-(17S)-17,20-dimethyl-6-fluoro-PGE1] |  | 0.00233 (≈ 0.00585 µM) | 100 |  | 0.1 | 1.8
CCCC[C@H](C)C[C@H](O)/C=C/[C@H]1[C@H](O)CC(=O)[C@H]1CC(F)CC/C=C/C(=O)O (stereo partly drawn) [APG - 30, (17S)-8-ent-Δ^2-17,20-dimethyl-6-fuoro-PGE1] |  | 0.00105 (≈ 0.00263 µM) | 1000 |  |  | 
